Laboratory results taken from PMC6278394, “Screening of Angiotensin-I Converting Enzyme Inhibitory Peptides Derived from Caulerpa lentillifera” (Molecules, 2018).
Ends that are not written are not given here.

Legend:
[1] = molecular target: T1, ACE (EC 3.4.15.1) from rabbit lungs (Oryctolagus cuniculus, UniProt P12822); experiment: in vitro ACE inhibitory assay (HHL substrate, hippuric acid by RP-HPLC); format: biochemical; details: synthetic peptide; HHL 2.5 mM, borate buffer pH 8.3, 37 °C, HPLC read-out at 228 nm; triplicate, nonlinear regression (Graphpad Prism 6.0)
T1 construct: ACE (EC 3.4.15.1) from rabbit lungs; purchased Sigma Chemical Co. (St. Louis, MO, USA); host or cells: rabbit lung tissue
T1 sequence (P12822 34-1310): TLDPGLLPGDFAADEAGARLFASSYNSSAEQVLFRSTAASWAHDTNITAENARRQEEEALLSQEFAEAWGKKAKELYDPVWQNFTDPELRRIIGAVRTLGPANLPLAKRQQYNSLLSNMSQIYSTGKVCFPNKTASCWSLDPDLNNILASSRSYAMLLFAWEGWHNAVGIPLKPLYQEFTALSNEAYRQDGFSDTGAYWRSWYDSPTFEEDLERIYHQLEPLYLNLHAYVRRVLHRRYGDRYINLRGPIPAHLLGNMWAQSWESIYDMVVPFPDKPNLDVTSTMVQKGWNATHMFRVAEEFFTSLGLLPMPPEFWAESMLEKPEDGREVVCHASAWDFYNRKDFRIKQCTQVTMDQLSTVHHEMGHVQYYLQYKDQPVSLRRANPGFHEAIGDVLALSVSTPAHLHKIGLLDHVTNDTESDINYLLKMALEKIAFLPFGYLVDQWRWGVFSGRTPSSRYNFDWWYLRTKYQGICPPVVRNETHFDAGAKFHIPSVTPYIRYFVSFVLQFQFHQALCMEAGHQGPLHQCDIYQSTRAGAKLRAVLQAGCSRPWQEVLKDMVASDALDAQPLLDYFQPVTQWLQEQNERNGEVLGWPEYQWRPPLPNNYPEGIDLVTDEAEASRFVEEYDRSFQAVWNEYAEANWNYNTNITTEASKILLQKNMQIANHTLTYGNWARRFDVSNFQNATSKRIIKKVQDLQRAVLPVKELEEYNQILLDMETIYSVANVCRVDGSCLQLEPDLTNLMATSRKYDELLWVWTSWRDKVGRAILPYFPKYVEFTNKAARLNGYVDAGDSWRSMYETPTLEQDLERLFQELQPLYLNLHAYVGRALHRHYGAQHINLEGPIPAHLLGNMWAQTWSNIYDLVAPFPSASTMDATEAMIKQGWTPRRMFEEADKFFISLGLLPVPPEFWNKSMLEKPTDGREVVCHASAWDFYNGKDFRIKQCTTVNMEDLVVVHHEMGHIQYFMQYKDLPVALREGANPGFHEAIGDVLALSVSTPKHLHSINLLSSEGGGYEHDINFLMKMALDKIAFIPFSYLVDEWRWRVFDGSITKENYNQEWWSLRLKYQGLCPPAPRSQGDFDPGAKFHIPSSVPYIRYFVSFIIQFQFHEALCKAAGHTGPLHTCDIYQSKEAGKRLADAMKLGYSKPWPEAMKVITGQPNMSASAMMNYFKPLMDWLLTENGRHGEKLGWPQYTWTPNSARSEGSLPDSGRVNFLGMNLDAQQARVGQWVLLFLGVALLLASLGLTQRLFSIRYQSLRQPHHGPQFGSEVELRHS
Protocol: The ACEI activity assay was performed according to a previous report with a slight modification. For each assay, 30 µL 2.5 mM Hippuryl-L-histidyl-L-leucine (HHL) was used as a substrate and added by 10 µL of testing sample (peptides) at a certain concentration in 200 mM borate buffer containing 300 mM NaCl (adjusted to pH 8.3). Blank sample using 10 µL of borate buffer and was added by the same substrate. The positive control was 10 µL of 10 µM captopril. All samples were pre-incubated at 37 °C for 5 min. Subsequently, 20 µL of ACE (0.05 mU/µL) in 200 mM borate buffer was added to the blank sample, positive control and testing sample. The reaction was incubated statically at 37 °C for 30 min and then incubated thermostatically using shaker incubation (200 rpm) at 37 °C for 30 min. […] The HHL and ACE’s hydrolyzed product, hippuric acid (HA), were quantitatively analyzed using HPLC equipped with a C18 column. […] The result of HA was detected by UV detector at 228 nm. The ACE inhibition (%) was determined according to the following equation:ACE Inhibition (%) = [1 − (ΔAInhibitor/ΔABlank)] × 100
Here, ΔAInhibitor and ΔABlank were the peak areas of HA in testing and blank samples, respectively. […] The IC50 was determined using Graphpad Prism 6.0 (GraphPad Software, Inc., La Jolla, CA, USA) by a nonlinear regression of ACE inhibition result (%) caused by different concentrations of inhibitor.

[2] = molecular target: T1, ACE (EC 3.4.15.1) from rabbit lungs; experiment: pre-incubation experiment of ACEI peptide with ACE (stability towards ACE, inhibitor type); format: biochemical; details: peptide 100 µM; for ACE inhibition activity without pre-incubation: before pre-incubation with ACE; for ACE inhibition activity after pre-incubation: pre-incubated with ACE (0.05 mU/µL) 3 h at 37 °C, then HHL 2.5 mM 1 h at 37 °C
Protocol: Since ACE is a dipeptidyl-carboxypeptidase, whether the ACEI peptides will be cleaved by ACE is a critical issue for an in vivo application. Pre-incubation of ACEI peptides with ACE before adding substrate is often used to monitor the reactivity between ACE and the ACEI peptide.
The stability of ACEI peptides towards peptidase ACE was determined according to the method described by Ruiz et al.. Briefly, ACEI peptide (at 100 µM) in 10 µL of deionized water was incubated with 20 µL of ACE (0.05 mU/µL) for 3 h at 37 °C. After that, 30 µL of 2.5 mM HHL was added and the reaction mixture was incubated at 37 °C for 1 h. The reaction was stopped by adding 60 µL 1 N HCl, and the inhibition degree of the peptide was calculated as in Section 3.5.

**Q.** How did the IC50 [1] turn out when AIDPVRA [AA-7] was run?
**A.** 65.8 ± 0.92 µM

**Q.** What about the “decrease of inhibition activity after pre-incubation” value ([2]; 3 h pre-incubation with ACE at 37 °C) of the same substance?
**A.** about 10%

**Q.** And the “ACE inhibition activity without pre-incubation” value [2]?
**A.** 68.07%

**Q.** And the “ACE inhibition activity after pre-incubation” value [2]?
**A.** 57.89%

**Q.** Which IC50 [1] does the source give for FDGIP [FP-5] here?
**A.** 58.9 ± 0.68 µM

**Q.** What about the “ACE inhibition activity without pre-incubation” value [2] of the same substance?
**A.** 78.89%

**Q.** What about the “ACE inhibition activity after pre-incubation” value [2] of the same substance?
**A.** 76.47%
